Measured values published in ChEMBL document CHEMBL1255275, “Drug-regulated expression of Plasmodium falciparum P-glycoprotein homologue 1: a putative role for nuclear receptors” (Antimicrob Agents Chemother, 2008).
Active and inactive are the calls of the source. No cut-off for these calls is given here.

What was measured:
Plasmodium falciparum [1] = assay: Increase in Pgh1 expression in chloroquine-sensitive Plasmodium falciparum K1AM by Western blot relative to untreated control; assay type: functional
Plasmodium falciparum [2] = assay: Increase in Pgh1 expression in chloroquine-resistant Plasmodium falciparum R1H6/2 by Western blot relative to untreated control; assay type: functional
Plasmodium falciparum [3] = assay: Increase in PfCRT expression in chloroquine-resistant Plasmodium falciparum R1H6/2 by Western blot relative to untreated control; assay type: functional, organism-based
Plasmodium falciparum [4] = assay: Increase in PfCRT expression in chloroquine-sensitive Plasmodium falciparum K1AM by Western blot relative to untreated control; assay type: functional, organism-based
Plasmodium falciparum [5] = assay: Increase in PfCRT expression chloroquine-sensitive Plasmodium falciparum K1Hf by Western blot relative to untreated control; assay type: functional, organism-based
Plasmodium falciparum [6] = assay: Increase in Pgh1 expression chloroquine-sensitive Plasmodium falciparum K1Hf by Western blot relative to untreated control; assay type: functional

CCC1(c2ccccc2)C(=O)NC(=O)NC1=O [PHENOBARBITAL]
fold change (FC) (Plasmodium falciparum [1]): 4.7
fold change (FC) (Plasmodium falciparum [2]): 6.4
Activity (Plasmodium falciparum [3]): inactive
Activity (Plasmodium falciparum [4]): inactive
Activity (Plasmodium falciparum [5]): inactive
fold change (FC) (Plasmodium falciparum [6]): 5.4
